Results on three molecules are retold here after patent US12433902B2, “Liposomal formulations for inhibiting SARS-CoV-2 replication and reducing lung inflammation” (priority 2021, dated 2025).

Data set [1] has as its system SARS-CoV-2. The conditions noted are these: cited from earlier work.
Data set [2] is described as follows: Toxicity observation at the 20 μg dose of BUD. The format is in vivo, C57BL/6 mice. The conditions noted are these: 20 μg dose of BUD.
For data set [3] the following is noted: cited from earlier work.

Structures can show the parent of a compound that is named as a salt.

In the case of “human recombinant soluble ACE2: human recombinant soluble ACE2”, the “viral growth in vitro” value in data set [1] is “reduces viral growth in vitro”.

For `CN(C)C(=O)COC(=O)Cc1ccc(OC(=O)c2ccc(NC(=N)N)cc2)cc1` [camostat mesylate], in data set [1] (high doses (e.g., 100 μg/mL)), the SARS-CoV-2 growth entry is “reduce SARS-CoV-2 growth partially”.

Turning to `CCCC1O[C@@H]2C[C@H]3[C@@H]4CCC5=CC(=O)C=C[C@]5(C)[C@H]4[C@@H](O)C[C@]3(C)[C@]2(C(=O)CO)O1` (some centres unmarked) [budesonide], in data set [2], the “toxicity to the spleen, liver, bone marrow, skin or the gastrointestinal tract” value is given as “without evidence of toxicity”. Besides, the half-life entry in data set [3] (BUD alone in the lungs) is on record as “about 36 hours”. In addition, the “effective life in the lungs” value in data set [3] (BUD alone) is “slightly more than one day”.
